Assay results from the NIST ThermoML archive (doi:10.1016/j.fluid.2014.08.018).
Numbers after ± are expanded uncertainties.

Settings: Liquid, Vibrating tube method

CC[n+]1ccccc1C.O=S(=O)([N-]S(=O)(=O)C(F)(F)F)C(F)(F)F
Settings	mass density [kg/m3]
283.15 K, 100 kPa	1520.3 ± 0.7
283.15 K, 2500 kPa	1522.2 ± 0.7
283.15 K, 5000 kPa	1523.8 ± 0.8
283.15 K, 7500 kPa	1525.4 ± 0.8
283.15 K, 10000 kPa	1527 ± 0.9
283.15 K, 15000 kPa	1530.1 ± 1
283.15 K, 20000 kPa	1533.1 ± 1.1
283.15 K, 25000 kPa	1536 ± 1.2
283.15 K, 30000 kPa	1538.8 ± 1.3
283.15 K, 35000 kPa	1541.6 ± 1.4
283.15 K, 45000 kPa	1546.9 ± 1.7
283.15 K, 55000 kPa	1551.8 ± 1.9
283.15 K, 65000 kPa	1556.4 ± 2.1
288.15 K, 100 kPa	1515.4 ± 0.7
288.15 K, 2500 kPa	1517.2 ± 0.7
288.15 K, 5000 kPa	1518.9 ± 0.8
288.15 K, 7500 kPa	1520.6 ± 0.8
288.15 K, 10000 kPa	1522.2 ± 0.9
288.15 K, 15000 kPa	1525.3 ± 1
288.15 K, 20000 kPa	1528.3 ± 1.1
288.15 K, 25000 kPa	1531.3 ± 1.2
288.15 K, 30000 kPa	1534.2 ± 1.3
288.15 K, 35000 kPa	1536.9 ± 1.4
288.15 K, 45000 kPa	1542.2 ± 1.7
288.15 K, 55000 kPa	1547.3 ± 1.9
288.15 K, 65000 kPa	1552 ± 2.1
293.15 K, 100 kPa	1510.5 ± 0.7
293.15 K, 2500 kPa	1512.4 ± 0.7
293.15 K, 5000 kPa	1514.1 ± 0.8
293.15 K, 7500 kPa	1515.7 ± 0.8
293.15 K, 10000 kPa	1517.4 ± 0.9
293.15 K, 15000 kPa	1520.6 ± 1
293.15 K, 20000 kPa	1523.6 ± 1.1
293.15 K, 25000 kPa	1526.6 ± 1.2
293.15 K, 30000 kPa	1529.5 ± 1.3
293.15 K, 35000 kPa	1532.4 ± 1.4
293.15 K, 45000 kPa	1537.8 ± 1.6
293.15 K, 55000 kPa	1542.9 ± 1.9
293.15 K, 65000 kPa	1547.7 ± 2.1
298.15 K, 100 kPa	1505.6 ± 0.7
298.15 K, 2500 kPa	1507.5 ± 0.7
298.15 K, 5000 kPa	1509.2 ± 0.8
298.15 K, 7500 kPa	1510.9 ± 0.8
298.15 K, 10000 kPa	1512.5 ± 0.9
298.15 K, 15000 kPa	1515.8 ± 1
298.15 K, 20000 kPa	1519 ± 1.1
298.15 K, 25000 kPa	1522 ± 1.2
298.15 K, 30000 kPa	1525 ± 1.3
298.15 K, 35000 kPa	1527.8 ± 1.4
298.15 K, 45000 kPa	1533.3 ± 1.6
298.15 K, 55000 kPa	1538.5 ± 1.9
298.15 K, 65000 kPa	1543.4 ± 2.1
303.15 K, 100 kPa	1500.8 ± 0.7
303.15 K, 2500 kPa	1502.7 ± 0.7
303.15 K, 5000 kPa	1504.5 ± 0.8
303.15 K, 7500 kPa	1506.2 ± 0.8
303.15 K, 10000 kPa	1507.9 ± 0.9
303.15 K, 15000 kPa	1511.2 ± 1
303.15 K, 20000 kPa	1514.3 ± 1.1
303.15 K, 25000 kPa	1517.5 ± 1.2
303.15 K, 30000 kPa	1520.5 ± 1.3
303.15 K, 35000 kPa	1523.4 ± 1.4
303.15 K, 45000 kPa	1528.9 ± 1.6
303.15 K, 55000 kPa	1534.2 ± 1.8
303.15 K, 65000 kPa	1539.2 ± 2.1
308.15 K, 100 kPa	1495.9 ± 0.7
308.15 K, 2500 kPa	1497.9 ± 0.7
308.15 K, 5000 kPa	1499.7 ± 0.8
308.15 K, 7500 kPa	1501.4 ± 0.8
308.15 K, 10000 kPa	1503.1 ± 0.9
308.15 K, 15000 kPa	1506.5 ± 1
308.15 K, 20000 kPa	1509.7 ± 1.1
308.15 K, 25000 kPa	1512.9 ± 1.2
308.15 K, 30000 kPa	1515.9 ± 1.3
308.15 K, 35000 kPa	1518.9 ± 1.4
308.15 K, 45000 kPa	1524.5 ± 1.6
308.15 K, 55000 kPa	1529.9 ± 1.8
308.15 K, 65000 kPa	1534.9 ± 2.1
313.15 K, 100 kPa	1491.1 ± 0.7
313.15 K, 2500 kPa	1493.2 ± 0.7
313.15 K, 5000 kPa	1495 ± 0.8
313.15 K, 7500 kPa	1496.8 ± 0.8
313.15 K, 10000 kPa	1498.5 ± 0.9
313.15 K, 15000 kPa	1502 ± 1
313.15 K, 20000 kPa	1505.2 ± 1.1
313.15 K, 25000 kPa	1508.4 ± 1.2
313.15 K, 30000 kPa	1511.5 ± 1.3
313.15 K, 35000 kPa	1514.5 ± 1.4
313.15 K, 45000 kPa	1520.3 ± 1.6
313.15 K, 55000 kPa	1525.7 ± 1.8
313.15 K, 65000 kPa	1530.8 ± 2
318.15 K, 100 kPa	1486.3 ± 0.7
318.15 K, 2500 kPa	1488.4 ± 0.7
318.15 K, 5000 kPa	1490.3 ± 0.8
318.15 K, 7500 kPa	1492.1 ± 0.8
318.15 K, 10000 kPa	1493.8 ± 0.9
318.15 K, 15000 kPa	1497.3 ± 1
318.15 K, 20000 kPa	1500.6 ± 1.1
318.15 K, 25000 kPa	1503.9 ± 1.2
318.15 K, 30000 kPa	1507 ± 1.3
318.15 K, 35000 kPa	1510.1 ± 1.4
318.15 K, 45000 kPa	1515.9 ± 1.6
318.15 K, 55000 kPa	1521.4 ± 1.8
318.15 K, 65000 kPa	1526.6 ± 2
323.15 K, 100 kPa	1481.5 ± 0.7
323.15 K, 2500 kPa	1483.7 ± 0.7
323.15 K, 5000 kPa	1485.6 ± 0.8
323.15 K, 7500 kPa	1487.4 ± 0.8
323.15 K, 10000 kPa	1489.2 ± 0.9
323.15 K, 15000 kPa	1492.7 ± 1
323.15 K, 20000 kPa	1496.2 ± 1.1
323.15 K, 25000 kPa	1499.5 ± 1.2
323.15 K, 30000 kPa	1502.6 ± 1.3
323.15 K, 35000 kPa	1505.7 ± 1.4
323.15 K, 45000 kPa	1511.7 ± 1.6
323.15 K, 55000 kPa	1517.3 ± 1.8
323.15 K, 65000 kPa	1522.5 ± 2
328.15 K, 100 kPa	1476.8 ± 0.7
328.15 K, 2500 kPa	1478.9 ± 0.7
328.15 K, 5000 kPa	1480.8 ± 0.7
328.15 K, 7500 kPa	1482.7 ± 0.8
328.15 K, 10000 kPa	1484.5 ± 0.8
328.15 K, 15000 kPa	1488.1 ± 0.9
328.15 K, 20000 kPa	1491.6 ± 1
328.15 K, 25000 kPa	1494.9 ± 1.1
328.15 K, 30000 kPa	1498.2 ± 1.2
328.15 K, 35000 kPa	1501.4 ± 1.4
328.15 K, 45000 kPa	1507.4 ± 1.6
328.15 K, 55000 kPa	1513 ± 1.8
328.15 K, 65000 kPa	1518.4 ± 2
333.15 K, 100 kPa	1472 ± 0.6
333.15 K, 2500 kPa	1474.3 ± 0.7
333.15 K, 5000 kPa	1476.2 ± 0.7
333.15 K, 7500 kPa	1478.1 ± 0.8
333.15 K, 10000 kPa	1480 ± 0.8
333.15 K, 15000 kPa	1483.6 ± 0.9
333.15 K, 20000 kPa	1487.2 ± 1
333.15 K, 25000 kPa	1490.5 ± 1.1
333.15 K, 30000 kPa	1493.9 ± 1.2
333.15 K, 35000 kPa	1497 ± 1.3
333.15 K, 45000 kPa	1503.2 ± 1.6
333.15 K, 55000 kPa	1509 ± 1.8
333.15 K, 65000 kPa	1514.3 ± 2
